{
  "source": "patent US6673768B1",
  "about": "“Transgenic animal models for cardiac hypertrophy and methods of use thereof (treating)” (Board of Regents, The University of Texas System, priority 1997, dated 2004)",
  "key": {"[1]": {"test_system": "tetracycline-controlled transactivator (tTA)", "assay": "tTA-dependent luciferase target gene expression in primary rat cardiomyocytes", "assay_type": "cell-based", "method": "Cardiomyocytes were co-transfected with tTA expression plasmid pUHD15-1 and either a tTA-dependent luciferase construct pUHC13-3 or empty vector as control. 16 hours after transfection, cells were incubated in either medium without doxcycline (DOX) or medium with doxcycline. […] Open circles, empty vector, no DOX; filled circles, empty vector, plus DOX; open triangles, pUHC 13-3, no DOX; filled triangles, pUHC13-3, plus DOX. FIG. 11B is a bar graph depicting the ability of tTA to stimulate transcription of the target gene and the inhibitory effect of doxcycline 12 hours after transfection.\nTetracycline-controlled transactivator (tTA) expression plasmid pUHD15-1 encodes chimeric protein tTA under the control of the human cytomegalovirus (CMV) promoter and enhancer. tTA consists of amino acid residues 1-207 from the tetR protein and residues 363-490 from VP16 (Gossen and Bujard (1992) Proc. Natl. Acad. Sci. USA 89:5547-5551.\nPlasmid pUHD10-3 contains a chimeric tet operon/CMV minimal promoter upstream of multiple cloning sites (Bujard, 1996). pUHC13-3 is a firefly luciferase reporter gene expression plasmid driven by the chimeric tet operon/CMV minimal promoter (Gossen and Bujard (1992).\nThe firefly luciferase gene as a reporter gene was under control of the chimeric tet operon/CMV minimal promoter in pUHC13-3. Transient transfections were carried out as described in Example 3. […]"}, "cardiac α-actin promoter": {"test_system": "cardiac α-actin promoter", "assay": "Cardiac α-actin promoter-reporter (luciferase) activity in transfected cardiomyocytes exposed to agonists", "assay_type": "cell-based, rat", "details": "for induction of cardiac α-actin promoter-reporter activity over control cells: PE 100 μM, TGF-β1 1 ng/ml", "method": "(§1) FIG. 10 presents data showing the effects of adrenoceptor agonists on promoter-reporter activities for ANF, skeletal a-actin and cardiac a-actin, and a time course of effects of DOB on ANF message levels. FIGS. 10A, B, and C are bar graphs showing luciferase reporter levels after transfection of ANF, skeletal α-actin, and cardiac a-actin, respectively, into ventricular myocardial cells, and treatment, 24 hours after transfection, with PE (100 μM), DOB (10 μM), or TGF-β1 (1 ng/ml). Values are corrected for transfection efficiency and reported as the mean±SD from at least three experiments. FIG. 10D. Ventricular myocardial cells were switched to serum-free medium. DOB was added to the medium at various time points. “Control” represents cells treated with the DOB vehicle. 24 hours after incubation, total RNA was extracted and analyzed by Northern blot. Results are representative of n=3 or greater for each time point.\nTransient transfection. It was necessary to culture the isolated cardiomyocytes in serum-free medium to eliminate effects on gene expression mediated through serum response elements. Primary myocardial cultures were first washed with serum-free growth medium and then maintained in serum-free Medium 199 supplemented with Nutridoma HU (Boehringer Mannheim Corporation, Indianapolis, Ind.) which contained human serum albumin, bovine insulin and human transferrin. Transfection were carried out by using a liposome-based transfecting agent, Lipofectamine (Life Technologies, Grand Island, N.Y.). The procedures used for transient transfection were followed as the manufacturer's instructions. The optimal values including DNA concentration, lipofectamine concentration, and time length for tansfection were determined prior to experiments carried out in this study. […]\n(§2) For α1-adrenergic stimulation, 100 μM PE (Sigma, St. Louis, Mo.) was added to the cells. […] Chemiluminescent β-galactosidase activity was assayed by using an aliquot of the same cell lysates collected for the luciferase assay and measured in the same luminometer as described below. […]"}, "CaM kinase II": {"test_system": "CaM kinase II", "assay": "Autonomous CaM kinase II activity in neonatal rat heart tissue slices", "assay_type": "biochemical", "details": "for CaMKII autonomous activation, increase over unstimulated heart tissues: 30 seconds after treatment, DOB 10 μM, ISO 100 μM", "method": "FIG. 9 is a bar graph depicting stimulation of CaMKII activity by b1-adrenergic receptor in neonate rat heart tissue. Neonatal (1-4 day old) heart tissue slices were isolated and treated with isoproterenol (ISO, 100 μM), dolbutamine (DOB, 10 μM), or vehicle alone (control). Propanolol (PROP, 20 μM) was added 2 minutes before agonists were added. After 30 seconds of treatment, autonomous CaMKII activity was assayed. Data are shown as percentage of the ratio of calcium independent activity divided by total activity and represented as the mean±SD from at least three experiments.\nDetermination of autonomous CaM kinase II activity. CaM kinase II autonomous activity was determined in rat heart tissue homogenates using the synthetic peptide substrate, autocamtide-2 (KKALRRQETVDAL) (Mar et al. (1990) Mol. Cell. Biol. 10:4271-4283; and Farrance et al. (1992) J. Biol. Chem. 267:17234-17240) as exogenous substrate. […] Autonomous CaM kinase II activity was assayed by the phosphorylation of autocamtide-2 in the absence of Ca^2+/calmodulin and expressed as a proportion of activity obtained in the presence of these cofactors. Tissue slices were incubated in the presence or absence of various drug compounds for required time. At termination of the incubation the tissue slices were homogenized in ice-cold buffer (20 mM Tris-HCl, pH 7.5, 0.5 mM EGTA, 1.0 mM EDTA, 2.0 mM dithiothreitol, 10 mM sodium pyrophosphate, 0.4 mM ammonium molybdate, […]) by sonication. Supernatant were cleared by centrifugation (12,000×g, 2 minutes) and then assayed in a reaction mixture containing 50 mM PIPES (pH 7.0), 10 mM MgCl2 0.1 mg/ml bovine serum albumin, […], 20 mM [γ-^32P] […] Endogenous protein was sedimented by centrifugation and supernatants containing autocamtide-2 were spotted onto p81 phosphocellulose strips, washed 5 times, dried and ^32P-PO4 content was quantitated by Cerenkov radiation.\nThese experiments determined whether signaling through β1-adrenergic receptor subtype could activate cardiac CaMKII. […]"}, "ANF promoter": {"test_system": "ANF promoter", "assay": "ANF promoter-reporter (luciferase) activity in transfected cardiomyocytes exposed to agonists", "assay_type": "cell-based, rat", "method": "as §1\nTransient transfection. It was necessary to culture the isolated cardiomyocytes in serum-free medium to eliminate effects on gene expression mediated through serum response elements. Primary myocardial cultures were first washed with serum-free growth medium and then maintained in serum-free Medium 199 supplemented with Nutridoma HU (Boehringer Mannheim Corporation, Indianapolis, Ind.) which contained human serum albumin, bovine insulin and human transferrin. Transfection were carried out by using a liposome-based transfecting agent, Lipofectamine (Life Technologies, Grand Island, N.Y.). The procedures used for transient transfection were followed as the manufacturer's instructions. The optimal values including DNA concentration, lipofectamine concentration, and time length for tansfection were determined prior to experiments carried out in this study. Briefly, for each transfection, 2 μg DNA and 20 μg lipofectamine were diluted into separate vials containing 300 μl serum-free nutridoma supplemented medium. The two solutions were then combined and incubated at room temperature for 15-45 minutes to allow DNA-liposome complexes to form. For each transfection, 2.4 ml of serum-free nutridoma supplemented medium were added to the tube containing the DNA-liposome complexes and the diluted mixture was overlaid onto the adherent cardiomyocytes that had been rinsed once with 2 ml of serum-free medium in a 60-mm tissue culture plate. The cell cultures were incubated at 37° C. in a C02 incubator containing 5% CO2 for 24 hours, at which time various test compounds were added. Promoter activities from cell extracts were assayed within 48 hours following the start of transfection.\nFor α1-adrenergic stimulation, 100 μM PE (Sigma, St. Louis, Mo.) was added to the cells. DOB (Gensia Laboratories, Ltd., Irving, Calif.), a selective β1-adrenergic agonist, was added at a concentration of 10 μM. To correct for variation in transfection efficiencies, pβGal-Control was used as an internal control. Chemiluminescent β-galactosidase activity was assayed by using an aliquot of the same cell lysates collected for the luciferase assay and measured in the same luminometer as described below.\nFirefly luciferase assay. The firefly luciferase assay is based upon a commercial (Promega, Madison, Wis.) long term “glow” type of bioluminescence assay. Briefly, activation of luciferin results in the formation of an enzyme-bound luciferyl adenylate (luciferyl-AMP). […]"}, "[2]": {"test_system": "skeletal α-actin promoter", "assay": "Skeletal α-actin promoter-reporter (luciferase) activity in transfected cardiomyocytes exposed to agonists", "assay_type": "cell-based, rat", "method": "as §1\nTransient transfection. […] The optimal values including DNA concentration, lipofectamine concentration, and time length for tansfection were determined prior to experiments carried out in this study. […]\nas §2"}, "[3]": {"test_system": "neonatal rat cardiomyocytes", "assay": "AngII- and PE-induced hypertrophy of primary cardiomyocytes (anti-α-actinin staining, cell size and sarcomeric assembly)", "assay_type": "cell-based", "details": "72 hr; AngII 10 nM or PE 10 μM", "procedure": "A-F, Primary rat cardiocytes in serum-free medium were stimulated with AngII (10 nM) or PE (10 μm) for 72 hours. Cells were then fixed and stained with anti-α-actinin antibody to reveal sarcomeres and Hoechst stain to reveal nuclei.\nTo visualize primary cardiomyocytes and their sarcomeric organization, anti-α-actinin mouse monoclonal antibody was used (Sigma). […] Cells were washed in 1×phosphate-buffered saline (PBS), fixed in 3.7% paraformaldehyde for 5 minutes, washed three times with 1×PBS and then pre-blocked in 1×PBS containing 2% horse serum, 2% BSA, and 0.1% non-ionic detergent NP40 for 30 minutes. Anti-α-actinin antibody was added at a dilution of 1:800 in fresh preblock solution and incubated for an additional 30 minutes. Subsequently, the cells were washed three times in 1×PBS with 0.1% NP40. Anti-mouse TRITC-conjugated secondary antibody was then added at a dilution of 1:400 for 30 minutes in pre-block solution and the cells were again washed three times in 1×PBS containing 0.1% NP40. Nuclear staining for DNA was performed with 0.5 μg/ml of bisbenzimide in PBS for 15 minutes followed by three rinses with PBS."}, "ANF mRNA": {"test_system": "ANF mRNA", "assay": "ANF message level by Northern analysis in neonatal cardiocytes", "assay_type": "cell-based, rat", "method": "FIG. 10 presents data showing the effects of adrenoceptor agonists on promoter-reporter activities for ANF, skeletal a-actin and cardiac a-actin, and a time course of effects of DOB on ANF message levels. FIGS. 10A, B, and C are bar graphs showing luciferase reporter levels after transfection of ANF, skeletal α-actin, and cardiac a-actin, respectively, into ventricular myocardial cells, and treatment, 24 hours after transfection, with PE (100 μM), DOB (10 μM), or TGF-β1 (1 ng/ml). Values are corrected for transfection efficiency and reported as the mean±SD from at least three experiments. FIG. 10D. Ventricular myocardial cells were switched to serum-free medium. […] 24 hours after incubation, total RNA was extracted and analyzed by Northern blot. […]\nNorthern Analysis. […] After washing at high stringency (0.1×SSPE, 0.1% SDS, 65° C.), hybridized biotinylated cDNA were detected by using Chemiluminescent Detection System (TROPIX, Inc., Bedford, Mass.) and then exposed to X-ray film. The ANF bands were quantitated with a Howteck gel scanner (PDI, Huntington station, N.Y.) and normalized to the 28 S rRNA signal to correct for loading and/or transfer efficiencies.\nPrimary cultures of neonatal cardiocytes were kept in serum-free medium and β1 agonist, DOB, was applied to the cells at various times. ANF message RNA was evaluated in the end by northern analysis protocols as described above. […]"}, "[4]": {"details": "PE exposure, construct includes PERE motif"}, "[5]": {"details": "DOB 10 μM, added 24 hours after transfection"}},
  "data": [
    {"compound": "C[C@H]1c2cccc(O)c2C(O)=C2C(=O)[C@]3(O)C(O)=C(C(N)=O)C(=O)[C@@H](N(C)C)[C@@H]3[C@@H](O)[C@@H]21", "note": "[doxcycline]", "values": [
      {"measurement": "transactivation of the tTA-dependent target gene", "setting": "[1]; 1 μg/ml after transfection, tTA-transfected cells", "result": "markedly repressed"},
      {"measurement": "low level expression of the target gene caused by the treatment itself", "setting": "[1]; 1 μg/ml, 12 hour post-transfection", "result": "~4", "unit": "fold"}
    ]},
    {"compound": "TGF-β1: type β-transforming growth factor", "values": [
      {"measurement": "induction of cardiac α-actin promoter-reporter activity over control cells", "setting": "cardiac α-actin promoter", "result": 700, "unit": "%"}
    ]},
    {"compound": "CC(C)NCC(O)c1ccc(O)c(O)c1", "note": "(stereo not drawn) [ISO, isoproterenol]", "values": [
      {"measurement": "CaMKII autonomous activation, increase over unstimulated heart tissues", "setting": "CaM kinase II", "result": "~170", "unit": "%"}
    ]},
    {"compound": "CNC[C@H](O)c1cccc(O)c1", "note": "[PE, phenylephrine]", "values": [
      {"measurement": "transactivation of ANF reporter activity over control cells", "setting": "ANF promoter; PE 100 μM", "result": 200, "unit": "%"},
      {"measurement": "activation of ANF50 (NP338) nested deletion promoter-reporter construct", "setting": "ANF promoter; PE exposure, construct has lost PERE motif", "result": "not"},
      {"measurement": "activation of ANF135 (NP325) nested deletion promoter-reporter construct", "setting": "ANF promoter; [4]", "result": "activated"},
      {"measurement": "activation of ANF700 (NP337) nested deletion promoter-reporter construct", "setting": "ANF promoter; [4]", "result": "activated"},
      {"measurement": "transactivation of skeletal α-actin reporter activity over control cells", "setting": "[2]; PE 100 μM", "result": 200, "unit": "%"},
      {"measurement": "induction of cardiac α-actin promoter-reporter activity over control cells", "setting": "cardiac α-actin promoter", "result": "not significantly stimulated"},
      {"measurement": "cardiomyocyte size and sarcomeric assembly after exposure to agonist", "setting": "[3]", "result": "dramatic increase in size and sarcomeric assembly"}
    ]},
    {"compound": "CC(C)NCC(O)COc1cccc2ccccc12", "note": "(stereo not drawn) [PROP, propanolol]", "values": [
      {"measurement": "effect on DOB- or ISO-induced CaMKII autonomous activity", "setting": "CaM kinase II; PROP 20 μM added prior to agonist", "result": "blocked activation"}
    ]},
    {"compound": "CC(CCc1ccc(O)cc1)NCCc1ccc(O)c(O)c1", "note": "(stereo not drawn) [DOB, dobutamine]", "values": [
      {"measurement": "CaMKII autonomous activation, increase over unstimulated heart tissues", "setting": "CaM kinase II", "result": "~170", "unit": "%"},
      {"measurement": "decrease of ANF promoter-reporter activity", "setting": "ANF promoter; [5]", "result": "approximately 50%"},
      {"measurement": "decrease of skeletal α-actin promoter-reporter activity", "setting": "[2]; [5]", "result": "approximately 50%"},
      {"measurement": "decrease of cardiac α-actin promoter-reporter activity", "setting": "cardiac α-actin promoter; [5]", "result": "approximately 50%"},
      {"measurement": "decline of ANF mRNA compared to control values", "setting": "ANF mRNA; 24 hours after DOB exposure", "result": 75, "unit": "%"},
      {"measurement": "abundance of ANF message relative to control cultures", "setting": "ANF mRNA; within 16 hours of DOB exposure, serum-free medium", "result": "about half"}
    ]}
  ]
}
